Data as given in patent US8586530B2, “Modulation of inhibition of ferrochelatase by N-methyl protoporphyrin” (University of South Florida, priority 2006, dated 2013).
Where a chain is given by its changes, count along the chain named.

Key:
Assay in all cases: Fluorescence titration of NMPP binding (quenching of intrinsic protein fluorescence)
Conditions in all cases: 10 mM Tris-acetate pH 8, 0.05% Tween-80, read-out: dissociation constant (Kd) of NMPP
[1] = target: T1, wild-type, murine ferrochelatase (Mus musculus, UniProt P22315)
T1 construct: In wild-type, murine, mature ferrochelatase, five tryptophan residues; penta-histidine tag (N); made in house; host or cells: E. coli BL21(DE3)
T1 sequence (P22315 54-422): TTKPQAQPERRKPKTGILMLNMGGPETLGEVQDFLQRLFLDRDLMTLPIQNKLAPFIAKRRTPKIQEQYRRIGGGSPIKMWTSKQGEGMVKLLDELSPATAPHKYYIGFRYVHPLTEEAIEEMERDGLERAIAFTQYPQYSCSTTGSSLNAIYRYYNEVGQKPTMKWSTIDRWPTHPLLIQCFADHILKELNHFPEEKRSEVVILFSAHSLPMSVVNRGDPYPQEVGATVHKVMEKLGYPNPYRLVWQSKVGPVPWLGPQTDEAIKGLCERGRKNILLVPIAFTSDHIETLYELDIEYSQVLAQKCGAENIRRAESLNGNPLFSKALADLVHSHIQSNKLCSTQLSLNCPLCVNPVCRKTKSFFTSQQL
Procedure: (§1) Aliquots of NMPP were added to a solution of enzyme in 10 mM Tris-acetate, pH 8 containing 0.05% Tween-80 and incubated on ice for 1 hr. The intrinsic protein fluorescence was monitored at 331 nm (λex=283 nm). The Kd value for NMPP was determined by fitting the data to Equation 3. The enzymes used in each set were: A. wild-type ferrochelatase (40 nM); B. P255R (250 nM); C. P255G (120 nM).
(§2) The equilibrium constant for NMPP binding to ferrochelatase could be determined from the change in intrinsic protein fluorescence upon ligand addition. […]
(§3) Fluorescence Titration Measurements. Equilibrium fluorescence measurements were made using a Shimadzu RF-5301PC fluorimeter at 23° C. with excitation and emission wavelengths at 283 nm and 331 nm, respectively. The decrease in protein fluorescence, due to NMPP binding, was monitored. […] In a typical titration experiment, aliquots of the NMPP stock were added to the protein solution and, upon incubation on ice for 1 h, the quenching in fluorescence was monitored as described above. […] The observed fluorescence intensity was plotted against NMPP concentration and the dissociation constant of NMPP for ferrochelatase was determined using the least-squares fit of each data set to equation 3 by nonlinear regression: […]

[2] = target: T2, ferrochelatase variant P255G (Mus musculus, UniProt P22315, P308G); set-up: species or system murine
T2 construct: In wild-type, murine, mature ferrochelatase, five tryptophan residues; penta-histidine tag (N); made in house; host or cells: E. coli BL21(DE3)
T2 sequence (P22315 54-422 P308G): T1 sequence (P22315 54-422) with P255G
Procedure: as §1, §2, §3

[3] = target: T3, ferrochelatase variant P255R (Mus musculus, UniProt P22315, P308R); set-up: species or system murine
T3 construct: In wild-type, murine, mature ferrochelatase, five tryptophan residues; penta-histidine tag (N); made in house; host or cells: E. coli BL21(DE3)
T3 sequence (P22315 54-422 P308R): T1 sequence (P22315 54-422) with P255R
Procedure: as §1, §2, §3

Kd [1]: 9 ± 5 nM
Kd [2]: 300 ± 100 nM
Kd [3]: 160 ± 70 nM
Substance: N-methyl protoporphyrin [NMPP]
